Laboratory results as given in patent US11065335B2, “Methods of treating leukemia using compositions containing bis(benzylthio)octanoic acid and ion pairs thereof” (Rafael Pharmaceuticals, Inc., priority 2007, dated 2021).
Structures can show the parent of a compound that is named as a salt.

Columns and labels:
[1] = test system: A2780 ovarian tumor cells and BXPC3 human pancreatic cancer cells; experiment: CellTiter Glo cell viability assay, text statements not split by cell line; format: cell-based; details: for cell kill: 24 hrs; for impact of vehicle on cancer cell killing: vehicle alone 3200 μM
Protocol: Two types of human tumor cells were used in this investigation: BXPC3 human pancreatic cancer cells and A2780 human ovarian cancer cells. The BXPC3 cells were originally obtained from American Type Cell Culture (ATCC). […] The tumor cells were split at a ratio of 1:5 every 4-5 days by trypsinization and resuspended in fresh medium in a new flask. Cells were harvested for experiments at 70-90% confluency.
(§1) The corresponding vehicle concentrations were 64, 32, 16, 12, and 4 mM respectively. A sixty-four mM aliquot of vehicle was dissolved in 10 mL of water. […] A 5 μL aliquot of this stock solution was added to 95 μL of tumor cells in media. Upon dilution in the wells, the corresponding drug concentrations were 400, 200, 100, 75 and 25 μM respectively.
This gave a 16 mM solution.
This stock was further diluted serially in complete media to give 8 mM, 4 mM 2 mM, 1.5 mM and 0.5 mM working solutions.
The tumor cells were treated for 24 hrs with the test article in serum-containing medium. After 24 hrs of treatment the number of viable tumor cells was determined.
The number of cells targeted for the study was 4×10^3 per well in 100 μL of medium. The actual number of cells were counted and seeded in the wells of a 96 well-plate.
For each cell line the concentrations of test articles or vehicles specified above was used. Five μL of the working solution for each test article or vehicle was added to 95 μL of cell culture media. The corresponding final concentrations of test articles are 20 fold more diluted than the working solutions. […] Additionally, a set of wells was treated with cell culture medium in the absence of cells to obtain a value for background luminescence.
The number of viable cells was determined by using the CellTiter Glo® Assay. Specifically, reagents were mixed and allowed to come to room temperature according to instructions from Promega, Inc. (Madison, Wis.). Cell plates were removed from the cell culture incubator and left on the bench for 30 minutes until they reach room temperature. A one-hundred μL aliquot CellTiter Glo® reagent was added to each well with a 12-channel Eppendorf pipettor. The cells were lysed by shaking the plate for 2 minutes in a shaker. Then, the cells were kept at room temperature for 10 minutes to stabilize the luminescent signal. The luminescence was measured using the FLUOstar OPTIMA plate reader (BMG Labtech, Inc., Durham, N.C.).
Data from luminescence readings was copied onto EXCEL spreadsheets, and cell growth relative to untreated cells was calculated, using the following equation: […]
The calculated values were imported into SigmaPlot, v11. A Four-Parameter Logistic Curve of the “mean relative cell growth as a function of the concentrations of the test articles” was generated. The EC50 values were determined from the curves. The R-squared value provides an indication of the degree of fitness of data to the curve. For each experiment, the percentage of viable cells was be expressed as the mean of 9 replicates. The average was calculated by taking the mean±standard deviation of the three experiments.

[2] = test system: A2780 human ovarian cancer cells; experiment: CellTiter Glo cell viability assay, A2780 cells; details: Homo sapiens, A2780, 24 h
Protocol: (§2) Two types of human tumor cells were used in this investigation: BXPC3 human pancreatic cancer cells and A2780 human ovarian cancer cells. The BXPC3 cells were originally obtained from American Type Cell Culture (ATCC). The ovarian tumor cells were gifts from Roswell Park Cancer Institute, Buffalo, N.Y. All tumor cells were maintained at 37° C. in a humidified 5% CO2 atmosphere in T75 tissue culture flasks containing 20 mL of Roswell Park Memorial Institute (RPMI) 1640 containing 2 mM L-glutamine, 10% fetal bovine serum (FBS) and 1% penicillin and streptomycin (100 IU/mL penicillin and 100 μg/mL streptomycin). The tumor cells were split at a ratio of 1:5 every 4-5 days by trypsinization and resuspended in fresh medium in a new flask. Cells were harvested for experiments at 70-90% confluency.
as §1, with “CPI-613 (i.e., 6,8-bis(benzylthio)octanoic acid) stock solutions at concentrations of 8, 4, 2, 1.5 and 0.5 mM were prepared in the appropriate vehicles. The molar ratio of vehicle to CPI-613 was maintained at 8:1. The” for “The”, “water. Next, 8 mM of CPI-613 was added and the mixture was stirred until a clear solution was obtained.” for “water.”
(§3) For the sodium salt and potassium salt form of CPI-613, 1 equivalent of CPI-613 solid was dissolved in water. Sixty-two mg of CPI-613 (0.00016 mol) was added to 10 mL of water, then 165 μL of 1M NaOH or KOH was added and stirred until a clear solution was obtained. This gave a 16 mM solution. The resulting 16 mM solution was then serially diluted, thereby providing 8 mM and 4 mM solutions of the CPI-613 salt form. For the ammonium salt, vehicle to drug ratio was maintained at 8:1 and the formulation was prepared using procedures analogous to those described above in Section 2 relating to preparation of CPI-613 formulations in different vehicles.
(§4) CPI-613 formulated in 1M triethanolamine (TEA) was used as an internal control during formulation screening. To prepare a 16 mM of working stock of CPI-613, 50 mg/mL of CPI-613 (128.66 mM of CPI-613 in 1M TEA) was diluted in complete cell culture media containing 10% FBS. That is, 310 μL of a 128.66 mM solution of CPI-613 in 1M TEA was added to 2.19 mL of cell culture media. This stock was further diluted serially in complete media to give 8 mM, 4 mM 2 mM, 1.5 mM and 0.5 mM working solutions. On the day of testing, 5 μL of this working solution was added to 95 μL of cell culture media (20 fold dilution) resulting final concentrations of 400, 200, 100, 75 and 25 μM CPI-613, respectively. The ratio of CPI-613 to TEA was maintained at 1:8 ratio at all times.
(§5) The cell viability of CPI-613 formulations formulated at a ratio of 1:8, CPI-613 to vehicle, was assessed by exposing the A2780 ovarian tumor cells and BXPC3 human pancreatic cancer cells to the following CPI-613 concentrations: 400 μM (3200 μM vehicle), 200 μM (1600 μM vehicle), 100 μM (800 μM vehicle), 75 μM (600 μM vehicle) and 25 μM (200 μM vehicle) The impact of corresponding vehicles at 3200, 1600 and 800 μM concentrations was also tested in tumor cells for cell viability. […] CPI-613 in TEA was used as an internal control. The tumor cells were treated for 24 hrs with the test article in serum-containing medium. After 24 hrs of treatment the number of viable tumor cells was determined.
(§6) The number of cells targeted for the study was 4×10^3 per well in 100 μL of medium. The actual number of cells were counted and seeded in the wells of a 96 well-plate. The cells were incubated for ˜24 hrs before addition of CPI-613.
(§7) For each cell line the concentrations of test articles or vehicles specified above was used.

[3] = test system: BXPC3 human pancreatic cancer cells; experiment: CellTiter Glo cell viability assay, BXPC3 cells; details: Homo sapiens, BXPC-3, 24 h
Protocol: as §2
as §1, with “CPI-613 (i.e., 6,8-bis(benzylthio)octanoic acid) stock solutions at concentrations of 8, 4, 2, 1.5 and 0.5 mM were prepared in the appropriate vehicles. The molar ratio of vehicle to CPI-613 was maintained at 8:1. The” for “The”, “water. Next, 8 mM of CPI-613 was added and the mixture was stirred until a clear solution was obtained.” for “water.”
as §3, §4, §5, §6, §7

in vitro [4] = details: human, A2780 Cell Viability; for viability: 24 hrs
Protocol: as §2
as §1, with “CPI-613 (i.e., 6,8-bis(benzylthio)octanoic acid) stock solutions at concentrations of 8, 4, 2, 1.5 and 0.5 mM were prepared in the appropriate vehicles. The molar ratio of vehicle to CPI-613 was maintained at 8:1. The” for “The”, “water. Next, 8 mM of CPI-613 was added and the mixture was stirred until a clear solution was obtained.” for “water.”
as §3, §4, §5, §6, §7

in vitro [5] = details: human, BXPC3 Cell Viability; for viability: 24 hrs
Protocol: as §2
as §1, with “CPI-613 (i.e., 6,8-bis(benzylthio)octanoic acid) stock solutions at concentrations of 8, 4, 2, 1.5 and 0.5 mM were prepared in the appropriate vehicles. The molar ratio of vehicle to CPI-613 was maintained at 8:1. The” for “The”, “water. Next, 8 mM of CPI-613 was added and the mixture was stirred until a clear solution was obtained.” for “water.”
as §3, §4, §5, §6, §7

[6] = Stability of the drug product by visual observation and HPLC; format: physicochemical; details: 50 mg/mL in 1M triethanolamine
Protocol: Bis-benzyl lipoate was provided in a concentrated form at a concentration of 50 mg/mL dissolved in 1M triethanolamine (TEA). The stability of the drug product was assessed by visual observation and by high-performance liquid chromatography (HPLC) assessment, performed at the beginning and the end of the study. […] The concentrated bis-benzyl lipoate solution was diluted to an appropriate concentration with 5% dextrose (D5W) to formulate 0.1, 1 and 10 mg/kg doses of bis-benzyl lipoate.

[7] = test system: Human H-460 Non Small Cell Lung Carcinoma (NSCLC) xenograft; experiment: Anti-tumor activity in mice with Human H-460 NSCLC xenograft; format: in vivo
Protocol: A study to assess the dose and dosing schedule effects on the anti-tumor activity of bis-benzyl lipoate was undertaken. More specifically, the pharmaceutical formulations of bis-benzyl lipoate of Comparative Example 1, i.e., bis-benzyl lipoate dissolved in 1:1 Tween 80:ethanol and diluted with saline, were tested in mice with Human H-460 Non Small Cell Lung Carcinoma (NSCLC) xenograft. The pharmaceutical formulations were administered intraperitoneally (IP), given 1× or 3× weekly. Administration of bis-benzyl lipoate began when the average tumor size of the mice was ˜300 mm^3. There were originally eight treatment groups, with seven mice in each group, investigating three doses (0.1, 1 and 10 mg/kg) and two dosing schedules, as shown in Table 1 below.
Specifically, both subgroups of each treatment group were treated with the same dose of bis-benzyl lipoate as in the original protocol; however, one of the two subgroups was treated with a pharmaceutical formulation of bis-benzyl lipoate according to Comparative Example 1, i.e., bis-benzyl lipoate dissolved in 1:1 Tween 80:ethanol and diluted with saline, and the other subgroup was treated with a pharmaceutical formulation of bis-benzyl lipoate according to Example 1, i.e., dissolved in TEA and diluted with D5W. […]

O=C(O)CCCCC(CCSCc1ccccc1)SCc1ccccc1 (stereo not drawn) [CPI-613 ammonium salt]
cell kill ([1]; ammonium salt formulation at 200 μM): 70-80%
cell kill ([1]; ammonium salt formulation at 400 μM): 100%
viability at 25 µM ([2]; read-out: A2780 Cell Viability (ammonium salt formulations), CPI-613 25 μM, ratio 1:8): > 95%
viability at 75 µM ([2]; read-out: A2780 Cell Viability (ammonium salt formulations), CPI-613 75 μM, ratio 1:8): > 95%
viability at 100 µM ([2]; read-out: A2780 Cell Viability (ammonium salt formulations), CPI-613 100 μM, ratio 1:8): 70 to 95%
viability at 200 µM ([2]; read-out: A2780 Cell Viability (ammonium salt formulations), CPI-613 200 μM, ratio 1:8): 10 to 30%
viability at 400 µM ([2]; read-out: A2780 Cell Viability (ammonium salt formulations), CPI-613 400 μM, ratio 1:8): < 10%
viability at 25 µM ([3]; read-out: BXPC3 Cell Viability (ammonium salt formulations), CPI-613 25 μM, ratio 1:8): > 95%
viability at 75 µM ([3]; read-out: BXPC3 Cell Viability (ammonium salt formulations), CPI-613 75 μM, ratio 1:8): > 95%
viability at 100 µM ([3]; read-out: BXPC3 Cell Viability (ammonium salt formulations), CPI-613 100 μM, ratio 1:8): > 95%
viability at 200 µM ([3]; read-out: BXPC3 Cell Viability (ammonium salt formulations), CPI-613 200 μM, ratio 1:8): 30 to 70%
viability at 400 µM ([3]; read-out: BXPC3 Cell Viability (ammonium salt formulations), CPI-613 400 μM, ratio 1:8): < 10%

CC(O)CN(CC(C)O)CC(C)O (stereo not drawn) [Triisopropanolamine]
impact of vehicle on cancer cell killing [1]: appear to have come cell killing effects
viability (in vitro [4]; vehicle alone 800 μM): > 95%
viability (in vitro [4]; vehicle alone 1600 μM): > 95%
viability (in vitro [4]; vehicle alone 3200 μM): 70 to 85%
viability (in vitro [5]; vehicle alone 800 μM): > 95%
viability (in vitro [5]; vehicle alone 1600 μM): > 95%
viability (in vitro [5]; vehicle alone 3200 μM): 70 to 85%

NC(CO)(CO)CO [Tris base]
impact of vehicle on cancer cell killing [1]: did not show a significant impact on cancer cell killing
viability at 24 h, 800 μM (in vitro [4]; A2780 ovarian cancer cells, vehicle alone 800 μM): > 95%
viability at 24 h, 1600 μM (in vitro [4]; A2780 ovarian cancer cells, vehicle alone 1600 μM): > 95%
viability at 24 h, 3200 μM (in vitro [4]; A2780 ovarian cancer cells, vehicle alone 3200 μM): > 95%
viability at 24 h, 800 μM (in vitro [5]; BXPC3 pancreatic cancer cells, vehicle alone 800 μM): > 95%
viability at 24 h, 1600 μM (in vitro [5]; BXPC3 pancreatic cancer cells, vehicle alone 1600 μM): > 95%
viability at 24 h, 3200 μM (in vitro [5]; BXPC3 pancreatic cancer cells, vehicle alone 3200 μM): > 95%

O=C(O)CCCCC(CCSCc1ccccc1)SCc1ccccc1 (stereo not drawn) [bis-benzyl lipoate, 6,8-bis(benzylthio)octanoic acid]
physical appearance (stability of the drug product, visual observation) ([6]; beginning and end of the study): did not change
purity by HPLC (stability of the drug product) ([6]; both at the beginning and the end of the study): > 99%
anti-tumor effects compared to vehicle treatment ([7]; Comparative Example 1 formulation (Tween 80/ethanol/saline), IP, 0.1, 1, 10 mg/kg, 1x or 3x weekly): did not induce any anti-tumor effects
H-460 tumor size versus 10 mg/kg in Comparative Example 1 formulation ([7]; Example 1 formulation (TEA/D5W), 0.1-10 mg/kg): may be smaller
